Laboratory results as given in US10759783B2, “Biaryl inhibitors of Bruton'S tyrosine kinase” (BIOGEN MA INC., priority 2013, dated 2020).

Biological target: T1, BTK enzyme (Homo sapiens, UniProt Q06187)
T1 construct: purchased Upstate 14-552
Experiment: In vitro BTK kinase assay: BTK-POLYGAT-LS assay
Assay type: biochemical
Settings: ATP 10 μM, read-out: IC50 (10uMATP)
Experimental: The purpose of the BTK in vitro assay is to determine compound potency against BTK through the measurement of IC50. […] For a typical assay, a 24 μL aliquot of a ATP/peptide master mix (final concentration; ATP 10 μM, polyGAT 100 nM) in kinase buffer (10 mM Tris-HCl pH 7.5, 10 mM MgCl2, 200 μM Na3PO4, 5 mM DTT, 0.01% Triton X-100, and 0.2 mg/ml casein) is added to each well. […] The assay is incubated for 30 minutes before being stopped with 28 μL of a 50 mM EDTA solution. […] The plate is covered and incubated for 45 minutes at room temperature.

T1 sequence (Q06187 whole entry): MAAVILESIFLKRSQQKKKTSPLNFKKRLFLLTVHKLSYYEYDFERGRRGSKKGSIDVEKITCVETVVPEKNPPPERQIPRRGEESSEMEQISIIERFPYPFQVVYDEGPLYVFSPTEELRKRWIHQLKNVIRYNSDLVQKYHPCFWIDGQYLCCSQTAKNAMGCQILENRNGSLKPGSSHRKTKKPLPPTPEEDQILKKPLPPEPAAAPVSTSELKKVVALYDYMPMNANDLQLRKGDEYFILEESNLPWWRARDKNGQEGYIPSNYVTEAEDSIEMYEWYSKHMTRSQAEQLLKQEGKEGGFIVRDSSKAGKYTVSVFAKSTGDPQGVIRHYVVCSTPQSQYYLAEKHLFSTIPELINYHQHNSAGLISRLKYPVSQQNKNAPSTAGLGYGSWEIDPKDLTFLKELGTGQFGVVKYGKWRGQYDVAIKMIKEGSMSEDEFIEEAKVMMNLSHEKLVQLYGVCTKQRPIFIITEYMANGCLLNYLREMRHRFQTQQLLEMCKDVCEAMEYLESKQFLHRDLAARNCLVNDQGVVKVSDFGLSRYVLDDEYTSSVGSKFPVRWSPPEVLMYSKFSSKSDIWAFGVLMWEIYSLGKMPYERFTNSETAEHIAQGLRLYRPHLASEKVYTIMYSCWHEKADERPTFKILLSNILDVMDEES

| IC50 | Compound |
| --- | --- |
| 10 to 99 nM | Cc1cc(-c2ccnc(Nc3cnn(C)c3)n2)cnc1CNC(=O)c1cnc(C(C)(C)C)s1 [Example I-100, 2-(tert-butyl)-N-((3-methyl-5-(2-((1-methyl-1H-pyrazol-4-yl)amino)pyrimidin-4-yl)pyridin-2-yl)methyl)thiazole-5-carboxamide] |
| 1000 to 10000 nM | Cc1cc(-c2ccnc(NC(C)c3ccncc3)n2)ccc1CNC(=O)c1cnc(C(C)(C)C)s1 (stereo not drawn) [Example I-29, 2-(tert-butyl)-N-(2-methyl-4-(2-((1-(pyridin-4-yl)ethyl)amino)pyrimidin-4-yl)benzyl)thiazole-5-carboxamide] |
| 100 to 999 nM | Cc1cc(-c2ccnc(N)n2)ccc1CNC(=O)c1cnc(C(F)(F)F)s1 [Example I-83, N-(4-(2-aminopyrimidin-4-yl)-2-methylbenzyl)-2-(trifluoromethyl)thiazole-5-carboxamide] |
| 100 to 999 nM | Cc1cc(-c2ccnc(NCc3ccncc3)n2)ccc1CNC(=O)c1cnc(C(C)(C)C)s1 [Example I-32, 2-(tert-butyl)-N-(2-methyl-4-(2-((pyridin-4-ylmethyl)amino)pyrimidin-4-yl)benzyl)thiazole-5-carboxamide] |
| 100 to 999 nM | CNCc1cc(-c2ccnc(N)n2)ccc1CNC(=O)c1cc2c(s1)CCCC2 [Example I-145, N-(4-(2-aminopyrimidin-4-yl)-2-((methylamino)methyl)benzyl)-4,5,6,7-tetrahydrobenzo[b]thiophene-2-carboxamide] |
| 100 to 999 nM | Nc1nccc(-c2cnc(CNC(=O)c3cc4c(s3)CCCC4)c(F)c2)n1 [Example I-113, N-((5-(2-aminopyrimidin-4-yl)-3-fluoropyridin-2-yl)methyl)-4,5,6,7-tetrahydrobenzo[b]thiophene-2-carboxamide] |
| 100 to 999 nM | Cc1cc(-c2cnnc(Nc3cnn(C)c3)c2)ccc1CNC(=O)c1cnc(C(C)(C)C)s1 [Example I-114, 2-(tert-butyl)-N-(2-methyl-4-(6-((1-methyl-1H-pyrazol-4-yl)amino)pyridazin-4-yl)benzyl)thiazole-5-carboxamide] |
| 100 to 999 nM | C=CC(=O)N(C)Cc1cc(-c2ccnc(N)n2)ccc1CNC(=O)c1cc2c(s1)CCCC2 [Example I-146, N-(4-(2-aminopyrimidin-4-yl)-2-((N-methylacrylamido)methyl)benzyl)-4,5,6,7-tetrahydrobenzo[b]thiophene-2-carboxamide] |
| 100 to 999 nM | Cc1cc(-c2ccnc(Nc3cnn(C)c3)n2)ccc1CNC(=O)c1cn2c(n1)CCCC2 [Example I-156, N-(2-Methyl-4-(2-((1-methyl-1H-pyrazol-4-yl)amino)pyrimidin-4-yl)benzyl)-5,6,7,8-tetrahydroimidazo[1,2-a]pyridine-2-carboxamide] |
| 10 to 99 nM | Cc1cc(-c2ccnc(N)n2)ccc1CNC(=O)c1cc2c(s1)CCOC2 [Example I-139, N-(4-(2-aminopyrimidin-4-yl)-2-methylbenzyl)-6,7-dihydro-4H-thieno[3,2-c]pyran-2-carboxamide] |
| > 10000 nM | Cc1cc(-c2ccnc(N[C@@H](C)C3CCCCC3)n2)ccc1CNC(=O)c1cnc(C(C)(C)C)s1 [Example I-28, (S)-2-(tert-butyl)-N-(4-(2-((1-cyclohexylethyl)amino)pyrimidin-4-yl)-2-methylbenzyl)thiazole-5-carboxamide] |
| 100 to 999 nM | Cc1cc(-c2ccnc(N)n2)ccc1CNC(=O)c1cc2c(s1)CNCC2 [Example I-82, N-(4-(2-aminopyrimidin-4-yl)-2-methylbenzyl)-4,5,6,7-tetrahydrothieno[2,3-c]pyridine-2-carboxamide] |
| > 10000 nM | Cc1cc(-c2ccnc(N)n2)ccc1CNC(=O)c1cc2n(n1)CCNC2 [Example I-76, N-(4-(2-aminopyrimidin-4-yl)-2-methylbenzyl)-4,5,6,7-tetrahydro pyrazolo[1,5-a]pyrazine-2-carboxamide] |
| 10 to 99 nM | Cc1cc(-c2ccnc(Nc3ccc(N(C)C)cn3)n2)ccc1CNC(=O)c1cnc(C(C)(C)C)s1 [Example I-61, 2-(tert-butyl)-N-(4-(2-((5-(dimethylamino)pyridin-2-yl)amino)pyrimidin-4-yl)-2-methylbenzyl)thiazole-5-carboxamide] |
| 10 to 99 nM | Cc1cc(-c2nc(N)ncc2F)ccc1CNC(=O)c1cnc(C(C)(C)C)s1 [Example I-110, N-(4-(2-amino-5-fluoropyrimidin-4-yl)-2-methylbenzyl)-2-(tert-butyl)thiazole-5-carboxamide] |
| 1000 to 10000 nM | Cc1cc(-c2ccnc(NC3CCS(=O)(=O)CC3)n2)ccc1CNC(=O)c1cnc(C(C)(C)C)s1 [Example I-30, 2-(tert-butyl)-N-(4-(2-((1,1-dioxidotetrahydro-2H-thiopyran-4-yl)amino)pyrimidin-4-yl)-2-methylbenzyl)thiazole-5-carboxamide] |
| 10 to 99 nM | Cc1cc(-c2ccnc(N)n2)ccc1CNC(=O)c1cnc(C2CC2)s1 [Example I-85, N-(4-(2-aminopyrimidin-4-yl)-2-methylbenzyl)-2-cyclopropylthiazole-5-carboxamide] |

| IC50 | Compound |
| --- | --- |
| > 10000 nM | Cc1cc(-c2ccnc(Nc3cnn(C)c3)n2)ccc1CNC(=O)C1CCN(C)CC1 [Example I-16, 1-methyl-N-(2-methyl-4-(2-((1-methyl-1H-pyrazol-4-yl)amino)pyrimidin-4-yl)benzyl)piperidine-4-carboxamide] |
| < 10 nM | CN1CCn2nc(Nc3cc(-c4ccc5c(c4)CCCC5NC(=O)c4cnc(C(C)(C)C)s4)ncn3)cc2C1 (stereo not drawn) [Example I-134, 2-(tert-butyl)-N-(6-(6-((5-methyl-4,5,6,7-tetrahydropyrazolo[1,5-a]pyrazin-2-yl)amino)pyrimidin-4-yl)-1,2,3,4-tetrahydronaphthalen-1-yl)thiazole-5-carboxamide] |
| 1000 to 10000 nM | Cc1cc(-c2ccnc(N)n2)ccc1CNC(=O)[C@@H]1CC[C@@H]2CNCCN2C1 [Example I-79, (7R,9aR)—N-(4-(2-aminopyrimidin-4-yl)-2-methylbenzyl)octahydro-1H-pyrido[1,2-a]pyrazine-7-carboxamide] |
| 100 to 999 nM | Cc1nc(-c2ccnc(Nc3cnn(C)c3)n2)ccc1CNC(=O)c1cc2c(s1)CCOC2 [Example I-104, N-((2-methyl-6-(2-((1-methyl-1H-pyrazol-4-yl)amino)pyrimidin-4-yl)pyridin-3-yl)methyl)-6,7-dihydro-4H-thieno[3,2-c]pyran-2-carboxamide] |
| 100 to 999 nM | Cc1cc(-c2ccnc(Nc3cnn(C)c3)n2)ccc1CNC(=O)c1cnoc1C [Example I-18, 5-methyl-N-(2-methyl-4-(2-((1-methyl-1H-pyrazol-4-yl)amino)pyrimidin-4-yl)benzyl)isoxazole-4-carboxamide] |
| 10 to 99 nM | Cc1cc(-c2cc(Nc3nnn(C)n3)ncn2)ccc1CNC(=O)c1cnc(C(C)(C)C)s1 [Example I-68, 2-(tert-butyl)-N-(2-methyl-4-(6-((2-methyl-2H-tetrazol-5-yl)amino)pyrimidin-4-yl)benzyl)thiazole-5-carboxamide] |
| 10 to 99 nM | Cc1cc(-c2ccnc(Nc3cnn(C)c3)n2)ccc1CNC(=O)NC12CCC(CC1)CC2 [Example I-22, 1-(bicyclo[2.2.2]octan-1-yl)-3-(2-methyl-4-(2-((1-methyl-1H-pyrazol-4-yl)amino)pyrimidin-4-yl)benzyl)urea] |
| < 10 nM | Cc1cc(-c2ccnc(Nc3cnn(C[C@@H](N)CO)c3)n2)ccc1CNC(=O)c1cnc(C(C)(C)C)s1 [Example I-133, (R)—N-(4-(2-((1-(2-amino-3-hydroxypropyl)-1H-pyrazol-4-yl)amino)pyrimidin-4-yl)-2-methylbenzyl)-2-(tert-butyl)thiazole-5-carboxamide] |
| 1000 to 10000 nM | Cc1cc(-c2ccnc(NC3CCOCC3)n2)ccc1CNC(=O)c1cnc(C(C)(C)C)s1 [Example I-26, 2-(tert-butyl)-N-(2-methyl-4-(2-((tetrahydro-2H-pyran-4-yl)amino)pyrimidin-4-yl)benzyl)thiazole-5-carboxamide] |
| 10 to 99 nM | Cc1cc(-c2ccnc(Nc3cnn(C)c3)n2)ccc1CNC(=O)c1ccn(C)c1 [Example I-155, 1-Methyl-N-(2-methyl-4-(2-((1-methyl-1H-pyrazol-4-yl)amino)pyrimidin-4-yl)benzyl)-1H-pyrrole-3-carboxamide] |
| 10 to 99 nM | Cc1cc(-c2ccnc(Nc3cnn(C)c3)n2)cnc1CNC(=O)c1cc2c(s1)CCOC2 [Example I-101, N-((3-methyl-5-(2-((1-methyl-1H-pyrazol-4-yl)amino)pyrimidin-4-yl)pyridin-2-yl)methyl)-6,7-dihydro-4H-thieno[3,2-c]pyran-2-carboxamide] |
| 10 to 99 nM | Cc1cc(-c2ccnc(N)n2)ccc1CNC(=O)c1cnc(C(C)C)s1 [Example I-86, N-(4-(2-aminopyrimidin-4-yl)-2-methylbenzyl)-2-isopropylthiazole-5-carboxamide] |
| 100 to 999 nM | Cc1cc(-c2ccnc(N)n2)ccc1CNC(=O)c1cc2c(s1)CCN(C)C2 [Example I-141, N-(4-(2-aminopyrimidin-4-yl)-2-methylbenzyl)-5-methyl-4,5,6,7-tetrahydrothieno[3,2-c]pyridine-2-carboxamide] |
| < 10 nM | Cc1cc(-c2ccnc(Nc3cnn(C)c3)n2)ccc1C(C)NC(=O)c1cnc(C(C)(C)C)s1 (stereo not drawn) [Example I-106, 2-(tert-butyl)-N-(1-(2-methyl-4-(2-((1-methyl-1H-pyrazol-4-yl)amino)pyrimidin-4-yl)phenyl)ethyl)thiazole-5-carboxamide] |
| 10 to 99 nM | Cc1cc(-c2ccnc(Nc3cnn(C)c3)n2)ccc1CNC(=O)[C@H]1CC[C@H](C(F)(F)F)CC1 [Example I-11, trans-N-(2-methyl-4-(2-((1-methyl-1H-pyrazol-4-yl)amino)pyrimidin-4-yl)benzyl)-4-(trifluoromethyl)cyclohexanecarboxamide] |
| < 10 nM | Cc1cc(-c2ccnc(Nc3cnn(C)c3)n2)ccc1CNC(=O)c1ccc(Cl)c(Cl)c1 [Example I-8, 3,4-dichloro-N-(2-methyl-4-(2-((1-methyl-1H-pyrazol-4-yl)amino)pyrimidin-4-yl)benzyl)benzamide] |
